Residues, ends and D or L forms follow the SMILES beside them. *: point of attachment. Chenodeoxycholyl = C[C@H](CCC(=O)*)[C@H]1CC[C@H]2[C@@H]3[C@H](O)C[C@@H]4C[C@H](O)CC[C@]4(C)[C@H]3CC[C@]12C; Cholyl = C[C@H](CCC(=O)*)[C@H]1CC[C@H]2[C@@H]3[C@H](O)C[C@@H]4C[C@H](O)CC[C@]4(C)[C@H]3C[C@H](O)[C@]12C
Tests used:
EL4 lymphoma cells = experiment: Apoptosis analysis by flow cytometry (Annexin-V/PI); type: cell-based
Protocol: (§1) Apoptosis analysis was conducted by flow-cytometry. Briefly, target cells were first treated then washed. Treated cells were then re-suspended in Annexin-V staining buffer prior to staining with Annexin-V and propidium iodine (PI). Fifteen minutes later, cells were washed prior to analysis using BD FACS™ Diva on CANTOII™.

EL4 cells = experiment: Endosomal escape: apoptosis assay with exogenous cytochrome C; type: cell-based; conditions: cytochrome C alone
Protocol: Endosomal leakage was assessed using two different approaches; the first strategy utilizes the FRET sensor CCF4-AM, a β-lactamase substrate. Briefly, EL4 cells were treated with 1 μM CCF4-AM for 1 h followed by the addition of 10 mg/ml of β-lactamase in the presence or absence of CA-C-SV40 (at concentration of 190 μM) for 3 h at 37° ° C. The cells were then washed, and fresh media added for an incubation period of 16 h at 37° C. The loss of FRET signal between the coumarin (donor) and fluorescein (acceptor) fluorophores was quantified by flow cytometry. For the apoptosis assay, 10^5 EL4 cells were first supplemented with 10 mg/ml of exogenous rCyt-C for 6 h at 37° C. in the presence or absence of CA-C-SV40 (at a concentration of 190 μM). Once the incubation period completed, the cells were washed with ice cold PBS, then stained for Annexin-V according to manufacturer's instructions prior to analysis using BD FACS Diva on CANTOII.
Cytochrome C is a protein that is normally entrapped in the mitochondria but can be released upon intrinsic signaling known to trigger apoptosis. An experiment was designed where recombinant cytochrome C was added to EL4 cells either alone or in combination with CA-C-SV40 ([…]) (FIG. 3A).

[1] = tested on: bone marrow-derived dendritic cells (DCs); experiment: Apoptosis analysis by flow cytometry on normal cells; type: cell-based, mouse; conditions: 190 μM
Protocol: Mouse bone marrow derived DCs (BMDCs) were generated by flushing the whole marrow from mouse femurs using RPMI™ 1640 supplemented with 10% fetal bovine serum (FBS), 50 U/mL Penicillin-Streptomycin, 2 mM L-glutamine, 10 mM HEPES, 1% MEM Non-essential Amino Acids, 1 mM Sodium Pyruvate, 0.5 mM β-mercaptoethanol. Following red blood cell lysis, cells were then cultured in media supplemented with 50 ng/ml murine recombinant GM-CSF. The media was changed on days 2, 4, 6 and 8. On day 9, the media was replaced to include recombinant murine GM-CSF and LPS from Escherichia coli 0111 (1 ng/mL) to stimulate DC maturation. Mature DCs were assessed by flow cytometry for their surface expression of CD3, CD19, NK1.1, CD11c, CD80, CD86, and I-A^b.
as §1

[2] = tested on: mesenchymal stem cells (MSCs); experiment: as above; type: cell-based; conditions: 190 μM
Protocol: as §1

macrophages = experiment: as above; type: cell-based; conditions: 190 μM
Protocol: as §1

EL4 lymphoma = experiment: EL4 tumor model in vivo (tumor growth, survival); design: species or system mice; conditions: highest tested dose (190 μM), every 48 h, 5 injections
Protocol: Female C57BL/6 mice (n=10/group) received a SC injection of 5×10^5 EL4 cells at Day 0. […] For all depletion studies, antibodies were injected via the intraperitoneal route at days 0, 3 and 6 at a concentration of 200 μg/injection. Tumor size and animal survival for all of the above listed in vivo studies was followed thereafter using a digital caliber until reaching endpoints (ulceration or a tumor volume ≥1000 mm^3).

[3] = tested on: EL4 lymphoma, B16 melanoma, E0771 breast cancer, CT-26 colon carcinoma, 4T1 breast cancer, MBA-MD-468, H460 and A549 lung cancer cells; experiment: Cytotoxicity screen of bile acid-SV40 conjugates (Annexin-V) on eight cancer cell lines; type: cell-based; conditions: 190 μM, all eight tumor cell lines tested
Protocol: Annexin-V staining percentage after treatment with different bile acid-SV40 conjugates (190 μM) is shown relative to live cancer cells (i.e., PBS treated cancer cells) by flow cytometry. Cancer cell lines tested were EL4 lymphoma, B16 melanoma, E0771 breast cancer, CT-26 colon carcinoma, 4T1 breast cancer, MBA-MD-468 triple-negative breast cancer, human H460 lung cancer, and human A549 lung cancer. […] SV40 alone was also tested as a negative control.
as §1

“SV40 NLS: nuclear localization signal from SV40 large T-antigen (SEQ ID NO: 2), tested alone as negative control” was tested, and the cytotoxic activity (EL4 lymphoma cells; separately, at any of the concentrations tested) was “did not exhibit any cytotoxic activity”.
With “cytochrome C: recombinant cytochrome C added to EL4 cells as cargo” the cell death (EL4 cells) was “did not trigger cell death”.
In the case of `CC(C)[C@H](NC(=O)[C@H](CCCCN)NC(=O)[C@H](CCCNC(=N)N)NC(=O)[C@H](CCCCN)NC(=O)[C@H](CCCCN)NC(=O)[C@H](CCCCN)NC(=O)[C@@H]1CCCN1C(=O)CNC(=O)[C@H](Cc1ccc(O)cc1)NC(=O)CNC(=O)[C@H](CS)NC(=O)CC[C@@H](C)[C@H]1CC[C@H]2[C@@H]3[C@H](O)C[C@@H]4C[C@H](O)CC[C@]4(C)[C@H]3C[C@H](O)[C@]12C)C(=O)NCC(=O)NCC(=O)O` [CA-C-SV40] (Cholyl-CGYGPKKKRKVGG-OH), the “apoptosis in normal or healthy cells” value [1] is reported as “induce apoptosis”, the “cytotoxicity of cholic acid-NLS conjugates” value (EL4 lymphoma cells; 190 μM, Annexin-V staining) is reported as “notably higher than that of CA-C-GWG-SV40” and the “apoptosis in normal or healthy cells” value [2] is reported as “induce apoptosis”. The “apoptosis in normal or healthy cells” value (macrophages) was “induce apoptosis”.
For `CSCC[C@H](NC(=O)[C@H](CS)NC(=O)CC[C@@H](C)[C@H]1CC[C@H]2[C@@H]3[C@H](O)C[C@@H]4C[C@H](O)CC[C@]4(C)[C@H]3C[C@H](O)[C@]12C)C(=O)NCC(=O)N[C@@H](CCCNC(=N)N)C(=O)N[C@H](C(=O)N[C@@H](CCCNC(=N)N)C(=O)N[C@H](C(=O)N[C@@H](CCCCN)C(=O)N[C@H](C(=O)N[C@H](C(=O)N[C@@H](CCCCN)C(=O)N[C@@H](CCCCN)C(=O)N[C@@H](C)C(=O)N[C@@H](C)C(=O)NCC(=O)NCC(=O)O)C(C)C)[C@@H](C)O)[C@@H](C)O)C(C)C` [CA-C-NLS1 RPS17] (Cholyl-CMGRVRTKTVKKAAGG-OH; N-terminus and C-terminus assumed), the tumor growth (EL4 lymphoma) was “significantly delayed tumor growth”.
With `CC(=O)N[C@@H](CS)C(=O)O` [NAC, N-acetylcysteine] the “rescue from CA-C-SV40-triggered cell death” value (EL4 lymphoma cells; CA-C-SV40 at higher doses (IC100)) was “incomplete but significant blockade”.
In the case of `CC[C@H](C)[C@H](NC(=O)[C@H](CCCNC(=N)N)NC(=O)[C@H](CCCCN)NC(=O)[C@H](CCSC)NC(=O)[C@H](CC(C)C)NC(=O)[C@H](Cc1c[nH]cn1)NC(=O)[C@@H](NC(=O)[C@@H](NC(=O)[C@H](Cc1ccc(O)cc1)NC(=O)CNC(=O)[C@H](C)NC(=O)[C@@H](NC(=O)[C@H](CCCCN)NC(=O)[C@H](CC(N)=O)NC(=O)[C@H](CCCNC(=N)N)NC(=O)[C@H](CC(C)C)NC(=O)[C@H](CCCCN)NC(=O)[C@H](CCCCN)NC(=O)[C@H](CO)NC(=O)[C@H](CS)NC(=O)CC[C@@H](C)[C@H]1CC[C@H]2[C@@H]3[C@H](O)C[C@@H]4C[C@H](O)CC[C@]4(C)[C@H]3C[C@H](O)[C@]12C)[C@@H](C)CC)C(C)C)[C@@H](C)O)C(=O)O` [CA-C-NLS3 RPS17] (Cholyl-CSKKLRNKIAGYVTHLMKRI-OH; N-terminus and C-terminus assumed), the tumor growth (EL4 lymphoma) is reported as “significantly delayed tumor growth”.
For `CC(C)[C@H](NC(=O)[C@H](CCCCN)NC(=O)[C@H](CCCNC(=N)N)NC(=O)[C@H](CCCCN)NC(=O)[C@H](CCCCN)NC(=O)[C@H](CCCCN)NC(=O)[C@@H]1CCCN1C(=O)CNC(=O)[C@H](Cc1ccc(O)cc1)NC(=O)CNC(=O)[C@H](CS)NC(=O)CC[C@@H](C)[C@H]1CC[C@H]2[C@@H]3[C@H](O)C[C@@H]4C[C@H](O)CC[C@]4(C)[C@H]3CC[C@]12C)C(=O)NCC(=O)NCC(=O)O` [CDCA-C-SV40] (Chenodeoxycholyl-CGYGPKKKRKVGG-OH), the cytotoxic activity [3] was 100%.

Reference: patent US12233130B2, “Covalently-modified steroid acid-peptides having enhanced stability and/or biological activity” (DEFENCE THERAPEUTICS INC., priority 2022, dated 2025)
